Assay results reported in ChEMBL document CHEMBL1201862, “PubChem BioAssay data set” (2004).
Activity calls are given as the source filed them.

How the values were obtained:
[1] = molecular target: T1, Microphthalmia-associated transcription factor (Homo sapiens, UniProt O75030); assay: TRPM1 promoter luciferase signal decrease, dose response, MITF inhibitor project, cell-based, SK-MEL-5, cherry-picked, set 3 (AID 493073); type: functional
T1 sequence (O75030 whole entry): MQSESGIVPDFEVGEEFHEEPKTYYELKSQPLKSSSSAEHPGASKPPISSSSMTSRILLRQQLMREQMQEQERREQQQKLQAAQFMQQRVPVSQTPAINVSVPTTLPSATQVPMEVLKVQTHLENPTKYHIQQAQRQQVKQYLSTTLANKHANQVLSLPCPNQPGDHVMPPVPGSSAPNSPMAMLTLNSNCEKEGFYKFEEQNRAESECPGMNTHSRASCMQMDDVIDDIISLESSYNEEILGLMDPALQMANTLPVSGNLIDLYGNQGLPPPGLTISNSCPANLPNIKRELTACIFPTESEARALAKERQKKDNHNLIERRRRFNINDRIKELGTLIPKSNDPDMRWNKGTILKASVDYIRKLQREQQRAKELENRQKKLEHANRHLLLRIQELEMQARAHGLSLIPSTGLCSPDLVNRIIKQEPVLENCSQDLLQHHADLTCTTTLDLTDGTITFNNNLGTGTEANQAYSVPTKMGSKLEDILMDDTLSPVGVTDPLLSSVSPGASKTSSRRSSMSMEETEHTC

[2] = molecular target: T2, Apoptotic protease-activating factor 1 (Homo sapiens, UniProt O14727); type: functional
T2 sequence (O14727 whole entry): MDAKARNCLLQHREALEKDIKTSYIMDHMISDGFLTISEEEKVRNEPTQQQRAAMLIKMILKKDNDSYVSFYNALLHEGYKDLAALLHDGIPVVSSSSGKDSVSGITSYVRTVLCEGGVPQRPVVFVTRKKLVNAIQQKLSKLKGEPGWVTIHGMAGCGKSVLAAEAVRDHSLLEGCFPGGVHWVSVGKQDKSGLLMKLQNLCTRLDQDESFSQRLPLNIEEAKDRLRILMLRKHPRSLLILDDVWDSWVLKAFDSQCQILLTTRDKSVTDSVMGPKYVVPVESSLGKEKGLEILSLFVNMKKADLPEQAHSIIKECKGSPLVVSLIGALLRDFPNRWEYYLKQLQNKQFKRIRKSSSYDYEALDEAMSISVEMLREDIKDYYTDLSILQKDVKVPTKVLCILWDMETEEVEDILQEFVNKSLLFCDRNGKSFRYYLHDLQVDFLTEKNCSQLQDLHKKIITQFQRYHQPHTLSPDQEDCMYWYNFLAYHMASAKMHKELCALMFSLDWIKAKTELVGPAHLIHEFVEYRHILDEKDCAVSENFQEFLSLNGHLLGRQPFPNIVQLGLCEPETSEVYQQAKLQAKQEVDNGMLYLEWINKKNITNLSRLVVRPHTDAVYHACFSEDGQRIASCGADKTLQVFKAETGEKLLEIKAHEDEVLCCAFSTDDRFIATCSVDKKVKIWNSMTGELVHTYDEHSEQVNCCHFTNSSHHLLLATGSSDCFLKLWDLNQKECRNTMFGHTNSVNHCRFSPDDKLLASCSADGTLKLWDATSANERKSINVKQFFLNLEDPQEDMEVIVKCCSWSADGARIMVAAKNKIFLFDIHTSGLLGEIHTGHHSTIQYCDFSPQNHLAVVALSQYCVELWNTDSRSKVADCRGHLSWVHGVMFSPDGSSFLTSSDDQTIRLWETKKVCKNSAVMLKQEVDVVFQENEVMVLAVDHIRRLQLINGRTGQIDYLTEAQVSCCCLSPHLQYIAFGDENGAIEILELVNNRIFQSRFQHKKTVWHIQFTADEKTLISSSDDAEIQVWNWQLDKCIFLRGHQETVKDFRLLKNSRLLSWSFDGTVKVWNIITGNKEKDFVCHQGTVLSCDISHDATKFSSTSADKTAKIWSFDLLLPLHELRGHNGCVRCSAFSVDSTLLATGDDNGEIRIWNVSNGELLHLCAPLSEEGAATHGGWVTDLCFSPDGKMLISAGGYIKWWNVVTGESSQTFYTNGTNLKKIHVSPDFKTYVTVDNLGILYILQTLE

[3] = A375 melanoma cell viability loss, dose response, counter-screen for MITF inhibitor project, CellTiter-Glo luminescence, dry powder, set 4 (AID 624364); type: functional, cell-based; settings: A-375;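 further: A375 melanoma cells are MITF independent so this is a counter screen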
[4] = A375 melanoma cell cytotoxicity, dose response, counter-screen for MITF inhibitor project, CellTiter-Glo luminescence, dry powder, set 2 (AID 624489); type: functional, cell-based; settings: A-375;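 further: actives are compounds lowering A375 viability meaning general cytotoxicity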
[5] = Vero cell cytotoxicity, dose response, cytotoxicity control for Vif-APOBEC3G degradation inhibitor project, Vero cells (AID 1117358); type: functional; settings: Human immunodeficiency virus 1, Vero
[6] = growth suppression of PTEN-null colon cells, dose response, cell-based, HCT116 PTEN knockout (AID 1047); type: functional;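 further: HCT116 colon tumor cells with PTEN knocked out; cells exposed to compound for 60 hours before readout; potency for loss of cell viability measured by luminescence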
[7] = growth suppression of beta-catenin-knockout colon cells, dose response, cell-based, HCT116, human colon tumor (AID 1045); type: functional;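 further: HCT116 colon tumor cells with beta catenin knocked out; cells exposed to compound for 60 hours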
[8] = Luminescence Cell-Based Dose Retest to Confirm Inhibitors of Cancer Stem Cells. [Related pubchem assays (depositor defined):AID2717, AID2721]; type: functional; settings: Homo sapiens
[9] = inhibitors of Vif binding to APOBEC3G peptide, primary screen, biochemical, TR-FRET, GST-Vif 1-94, biotin-A3G peptide, dose response retest (AID 1117319); type: functional;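 further: TR-FRET signal of purified GST-Vif binding a biotinylated A3G peptide; inhibitors lower the FRET signal by blocking Vif and A3G binding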
[10] = molecular target: Glutathione-S-transferase (Schistosoma japonicum, UniProt Q26513); assay: biotin-GST/anti-GST TR-FRET signal inhibitors, dose response, artefact control for Vif-APOBEC3G degradation inhibitor project, biochemical (AID 1117362); type: functional
[11] = Artemis endonuclease inhibitor potency, dose response, biochemical, fluorescence intensity (AID 720701); type: functional;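 further: Artemis endonuclease enzyme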
Caspase-9 = Caspase-9 (Homo sapiens, UniProt P55211); assay: caspase-9 enzyme inhibition, dose response, selectivity assay for caspase-6 inhibitor project, biochemical, fluorescence, plate reader, cherry-picked samples (AID 743293)
Caspase-8 = Caspase-8 (Homo sapiens, UniProt Q14790); assay: caspase-8 inhibition counter-screen, dose response, selectivity assay for caspase-6 inhibitor project, biochemical, Z-IETD-R110 fluorescence, cherry-picked samples (AID 743294)
Caspase-7 = molecular target: T3, Caspase-7 (Homo sapiens, UniProt P55210); assay: human caspase-7 inhibitors, dose response, selectivity assay for caspase-6 inhibitor project, biochemical, DEVD-R110 fluorescence, cherry-pick (AID 743295)
T3 sequence (P55210 whole entry): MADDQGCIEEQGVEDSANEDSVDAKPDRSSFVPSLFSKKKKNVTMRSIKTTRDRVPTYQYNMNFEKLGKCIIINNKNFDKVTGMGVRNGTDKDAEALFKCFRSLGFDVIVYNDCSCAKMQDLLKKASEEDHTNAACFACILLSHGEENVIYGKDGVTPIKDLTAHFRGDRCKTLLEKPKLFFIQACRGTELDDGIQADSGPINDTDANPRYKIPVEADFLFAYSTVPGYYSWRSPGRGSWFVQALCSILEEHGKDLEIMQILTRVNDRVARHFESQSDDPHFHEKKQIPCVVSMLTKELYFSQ

[12] = molecular target: T4, Tyrosyl-DNA phosphodiesterase 2 (Homo sapiens, UniProt O95551); assay: human TDP2 enzyme inhibitors, dose response, biochemical, epi absorbance, IC50 (AID 743297)
T4 sequence (O95551 whole entry): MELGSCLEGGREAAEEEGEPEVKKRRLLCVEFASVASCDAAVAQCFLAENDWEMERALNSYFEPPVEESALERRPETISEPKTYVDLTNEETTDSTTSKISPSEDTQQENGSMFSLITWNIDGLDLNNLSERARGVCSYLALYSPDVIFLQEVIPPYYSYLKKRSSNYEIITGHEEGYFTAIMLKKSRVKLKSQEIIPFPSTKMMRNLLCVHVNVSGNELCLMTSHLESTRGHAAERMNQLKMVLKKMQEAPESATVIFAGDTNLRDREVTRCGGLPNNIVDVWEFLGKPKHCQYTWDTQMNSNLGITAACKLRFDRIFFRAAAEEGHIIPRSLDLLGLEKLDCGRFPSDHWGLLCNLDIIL

Caspase-6 = molecular target: T5, Caspase-6 (Homo sapiens, UniProt P55212); assay: human caspase-6 inhibitors, dose response, biochemical, VEID-R110 fluorescence, cherry-pick (AID 720632)
T5 sequence (P55212 whole entry): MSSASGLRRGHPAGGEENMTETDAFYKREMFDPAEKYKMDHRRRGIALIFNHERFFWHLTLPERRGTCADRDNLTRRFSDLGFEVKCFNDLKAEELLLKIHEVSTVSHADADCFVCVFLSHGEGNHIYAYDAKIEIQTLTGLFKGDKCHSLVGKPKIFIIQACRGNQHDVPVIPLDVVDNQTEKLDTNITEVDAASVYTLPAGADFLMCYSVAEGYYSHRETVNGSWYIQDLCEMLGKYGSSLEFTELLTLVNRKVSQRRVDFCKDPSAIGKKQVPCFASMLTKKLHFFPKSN

Vero = assay: host cell cytotoxicity of antiviral hits, dose response, cytotoxicity control for West Nile virus antiviral project, secondary assay (AID 1650); type: functional; settings: Chlorocebus sabaeus
Streptokinase A = molecular target: T6, Streptokinase A (Streptococcus pyogenes serotype M1, UniProt P10520); assay: S. pyogenes streptokinase expression inhibitors, potency, dose response, plasminogen activation absorbance, OD405 (AID 1914); type: functional, Streptococcus pyogenes M1 GAS;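 further: secreted streptokinase activity via plasminogen activation per viability signal from cell pellet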
T6 sequence (P10520 whole entry): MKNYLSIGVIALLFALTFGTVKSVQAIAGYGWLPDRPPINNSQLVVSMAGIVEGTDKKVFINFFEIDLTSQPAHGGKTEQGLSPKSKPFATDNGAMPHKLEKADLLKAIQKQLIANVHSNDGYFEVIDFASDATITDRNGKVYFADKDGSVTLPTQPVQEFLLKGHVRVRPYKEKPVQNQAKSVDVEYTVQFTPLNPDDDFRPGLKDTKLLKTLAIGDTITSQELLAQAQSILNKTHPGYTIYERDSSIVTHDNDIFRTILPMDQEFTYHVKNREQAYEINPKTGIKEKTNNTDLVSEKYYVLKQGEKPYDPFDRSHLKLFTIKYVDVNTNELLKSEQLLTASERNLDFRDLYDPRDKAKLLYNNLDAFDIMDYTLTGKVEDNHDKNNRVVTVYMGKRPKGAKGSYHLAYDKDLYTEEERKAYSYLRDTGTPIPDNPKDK

[13] = molecular target: Sphingosine 1-phosphate receptor 2 (Homo sapiens, UniProt O95136); assay: Dose Response Cell Based Assay for Antagonists of the S1P2 Receptor. [Related pubchem assays: 856, 736 ]; type: functional
INS1 = assay: beta cell apoptosis inhibitors, cytokine rescue, dose response, luminescence, retest (AID 449756); type: functional, cell-based; settings: Rattus norvegicus;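 further: cell death triggered by IL-1 beta plus TNF-alpha plus IFN-gamma mixture; protective hits raise ATP signal compared with cytokine alone wells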
Streptococcus = assay: Group A Streptococcus viability loss, dose response, counter-screen for streptokinase expression inhibitor project, luminescence, BacTiterGlo (AID 1915); type: functional, organism-based;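 further: potency for reduction of bacterial viability or growth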
[14] = test system: Streptococcus sp. 'group A'; assay: growth inhibition of control SK(-) GAS strain, dose response, counter-screen for streptokinase expression inhibitor project, luminescence, kanamycin, BacTiterGlo, confirmation (AID 1900); type: functional, organism-based
[15] = HeLa 2N DNA content increase, dose response, cell-based, IC50 (AID 1117349); type: functional
[16] = HeLa 4N DNA content increase, dose response, cell-based, IC50 (AID 1117351); type: functional
[17] = P. falciparum Dd2 growth inhibitors, dose response, SYBR Green, dry powder samples, set 9 (AID 1159568); type: functional, cell-based
[18] = P. falciparum 3D7-ScDHODH growth inhibitors, dose response, SYBR Green, dry powder samples (AID 1159570); type: functional, cell-based;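 further: parasite growth measured after 72 hours of compound exposure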
[19] = HepG2 cell cytotoxicity, dose response, cytotoxicity control, plate reader, dry powder samples (AID 1159569); type: functional, cell-based;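 further: inhibitor potency with signal falling toward the positive control level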
[20] = P. falciparum ATP4 D1247Y mutant growth inhibitors, dose response, NITD609-resistant line, SYBR Green, dry powder (AID 1159571); type: functional, cell-based;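 further: parasites synchronized at ring stage by sorbitol before testing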
[21] = P. falciparum Dd2 growth inhibitors, dose response, SYBR Green, dry powder samples (AID 1159566); type: functional, cell-based;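 further: potency for growth inhibition with lower SYBR green DNA signal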
[22] = P. falciparum Dd2 growth inhibitors, dose response, SYBR Green, cherry-picked samples (AID 1159567); type: functional, cell-based
[23] = HepG2 cell cytotoxicity, dose response, cytotoxicity control, cherry-picked samples (AID 1159577); type: functional, cell-based

Sequence of Caspase-9 (P55211 1-315 limits assumed): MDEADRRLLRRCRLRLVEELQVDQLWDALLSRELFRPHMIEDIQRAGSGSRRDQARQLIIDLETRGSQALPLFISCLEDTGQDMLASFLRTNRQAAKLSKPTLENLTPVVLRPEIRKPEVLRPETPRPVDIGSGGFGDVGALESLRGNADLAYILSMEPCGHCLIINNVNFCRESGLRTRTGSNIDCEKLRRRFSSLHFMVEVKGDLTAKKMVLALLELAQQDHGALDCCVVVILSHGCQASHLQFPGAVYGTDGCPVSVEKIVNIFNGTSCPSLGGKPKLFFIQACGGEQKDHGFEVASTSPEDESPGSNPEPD
Sequence of Caspase-9 (P55211 331-416 limits assumed): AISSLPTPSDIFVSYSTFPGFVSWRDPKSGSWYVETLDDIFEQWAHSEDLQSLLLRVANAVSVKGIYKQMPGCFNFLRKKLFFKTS
Sequence of Glutathione-S-transferase (Q26513 whole entry): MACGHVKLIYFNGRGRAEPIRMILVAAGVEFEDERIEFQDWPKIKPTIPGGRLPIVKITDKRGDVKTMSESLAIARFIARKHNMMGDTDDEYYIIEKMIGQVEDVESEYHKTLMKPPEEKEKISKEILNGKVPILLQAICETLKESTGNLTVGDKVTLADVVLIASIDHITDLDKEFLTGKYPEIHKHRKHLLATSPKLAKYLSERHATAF
Sequence of Sphingosine 1-phosphate receptor 2 (O95136 whole entry): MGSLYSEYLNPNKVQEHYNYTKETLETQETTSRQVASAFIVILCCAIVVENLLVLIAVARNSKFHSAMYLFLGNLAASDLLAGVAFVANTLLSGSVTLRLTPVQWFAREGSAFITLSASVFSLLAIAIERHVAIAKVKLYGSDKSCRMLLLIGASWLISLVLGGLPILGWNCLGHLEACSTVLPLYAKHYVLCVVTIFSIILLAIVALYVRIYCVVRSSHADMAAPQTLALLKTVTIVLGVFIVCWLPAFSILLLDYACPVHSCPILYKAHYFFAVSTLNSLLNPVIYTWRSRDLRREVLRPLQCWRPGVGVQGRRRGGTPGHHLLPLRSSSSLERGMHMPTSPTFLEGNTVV
Sequence of Caspase-8 (Q14790 217-374 limits assumed): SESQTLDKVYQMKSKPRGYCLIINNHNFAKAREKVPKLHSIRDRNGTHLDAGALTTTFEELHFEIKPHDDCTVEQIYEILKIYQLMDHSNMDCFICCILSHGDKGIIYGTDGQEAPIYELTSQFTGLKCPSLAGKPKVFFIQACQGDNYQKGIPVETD
Sequence of Caspase-8 (Q14790 385-479 limits assumed): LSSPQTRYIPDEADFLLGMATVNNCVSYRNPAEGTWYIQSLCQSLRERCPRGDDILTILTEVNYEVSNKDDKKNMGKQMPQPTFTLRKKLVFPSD

CN1CCN(C2=C(NS(=O)(=O)c3ccccc3)C(=O)c3ccccc3C2=O)CC1
AC50 [1]: 6.9 µM (active)
IC50 [2]: 39.1 µM (active)
AC50 [3]: 44.6 µM (active)
AC50 [4]: 28.1 µM (active)

COC(=O)c1ccc(COc2ccccc2/C=C(\C#N)C(=O)Nc2c(C)cc(C)cc2C)cc1
CC50 [5]: 15.9 µM (active)
EC50 [6]: 5.83 µM (active)
EC50 [7]: 5.33 µM (active)
AC50 [8]: 1.28 µM (active)

Cn1c(C(=O)NCCN2CCOCC2)cc2c(=O)n(C)c3ccccc3c21
IC50 [9]: > 100 µM (active)
IC50 [10]: > 100 µM (active)

O=C1c2ccccc2C(=O)N1OCc1cccc(Cl)c1
IC50 [11]: 2.09 µM (active)

O=C1NC(=O)C(=Cc2ccccc2[N+](=O)[O-])S1
AC50 (Caspase-9): 16.1 µM (active)
AC50 (Caspase-8): 21 µM (active)
AC50 (Caspase-7): 9.01 µM (active)
IC50 [12]: 13.6 µM (inactive)
AC50 (Caspase-6): 3.66 µM (active)

Cc1cc(/C=N/n2cnnc2)c(C)n1-c1ccc(OCc2ccc(Cl)cc2)cc1
CC50 (Vero): 1.02 µM (active)
EC50 (Streptokinase A): 12.9 µM (active)
IC50 [13]: 49.3 µM (not active)
IC50 [11]: 15.7 µM (active)
AC50 (INS1): 1.15 µM (active)
EC50 (Streptococcus): 12.3 µM (active)
EC50 [14]: 5.41 µM (active)

CC(C)OC(=O)OCOP(=O)(CO[C@H](C)Cn1cnc2c(N)ncnc21)OCOC(=O)OC(C)C
IC50 [15]: > 10 µM (inactive)
IC50 [16]: > 10 µM (inactive)

O=C(Nc1ccc(F)cc1)N1C[C@@H]2[C@H](c3ccccc31)[C@@H](CO)N2Cc1ccccc1Cl
AC50 [17]: 12.3 µM (active)

COc1ccccc1C#Cc1ccc([C@@H]2[C@@H](CO)N3CCCCN(CCC(F)(F)F)C[C@H]23)cc1
AC50 [18]: 0.418 µM (active)
AC50 [19]: 9.58 µM (active)
AC50 [20]: 0.221 µM (active)
AC50 [21]: 0.254 µM (active)
AC50 [22]: 1.13 µM (active)
AC50 [23]: 36.5 µM (active)

CCCNC(=O)N1[C@H](CO)[C@H](c2ccc(C#Cc3cccc(F)c3)cc2)[C@@H]1C#N
AC50 [17]: 8.55 µM (active)
